What was measured:
TNFa [1] = assay: LPS-stimulated TNFa production, hBuffy Coat; format: cell-based, human; conditions: compound 1 nM
Protocol: (§1) The substances can be tested by mixing them with immune cells subject to stimulus and measuring the resulting inflammatory response. A standard assay involves the application of lipopolysaccharide (e.g. 10 μg/mL) to human blood derived immune cells and then detecting the concentration of cytokines (IL-6, TNFa) after 24 h. When tested in this way, the described compounds have the following effects as recorded in Table 2.

IL-6 [2] = assay: LPS-stimulated IL-6 production, spleen; format: cell-based; conditions: compound 10 nM
TNFa [3] = assay: LPS-stimulated TNFa production, BL6 Blood; format: cell-based; conditions: compound 100 nM
IL-6 [4] = assay: LPS-stimulated IL-6 production, hBuffy Coat; format: cell-based, human; conditions: compound 1 nM
Protocol: as §1

TNFa [5] = assay: LPS-stimulated TNFa production, spleen; format: cell-based; conditions: compound 10 nM
IL-6 [6] = assay: LPS-stimulated IL-6 production, BL6 Blood; format: cell-based; conditions: compound 100 nM

| SMILES | melting point | Amount of cytokine produced as % control: TNFa hBuffy Coat (100 ng LPS) 1 nM (TNFa [1]) | Amount of cytokine produced as % control: IL_6 Spleen (100 ng LPS) 10 nM (IL-6 [2]) | Amount of cytokine produced as % control: TNFa BL6 Blood (500 ng LPS) 100 nM (TNFa [3]) | Amount of cytokine produced as % control: IL-6 hBuffy Coat (100 ng LPS) 1 nM (IL-6 [4]) | Amount of cytokine produced as % control: TNFa Spleen (100 ng LPS) 10 nM (TNFa [5]) | Amount of cytokine produced as % control: IL-6 BL6 Blood (500 ng LPS) 100 nM (IL-6 [6]) |
| --- | --- | --- | --- | --- | --- | --- | --- |
| COC(=O)c1ccc2c(c1)C(=O)c1ccc(Nc3ccc(F)cc3F)cc1OC2 [Compound 15a, 3-((2,4-Difluorophenyl)amino)-11-oxo-6,11-dihydrobenzo[b,e]oxepin-9-carboxylmethylester] | 162.7 °C | – | – | – | – | – | – |
| C[S+]([O-])c1ccc(-c2nc(-c3ccncc3)c(-c3ccc(F)cc3)[nH]2)cc1 (stereo not shown) [SB203580] | – | 85 % control | 10 % control | 4 % control | 61 % control | 11 % control | 22 % control |

Reference: patent US20230017312A1, “CENTRALLY ACTIVE P38ALPHA INHIBITING COMPOUNDS” (Synovo GmbH, priority 2019, published 2023)
